Assay results published in patent US8557998B2, “Benzylpiperizine compound” (Dainippon Sumitomo Pharma Co., Ltd, priority 2008, dated 2013).

Legend:
[1] = molecular target: T1, human serotonin transporter (h-SERT) (Homo sapiens, UniProt P31645); assay: Screening test using [3H]citalopram binding for evaluating human serotonin reuptake inhibitory effect; conditions: h-SERT/CHO membrane preparation, [3H]citalopram approximately 2 nM, room temperature 60 minutes; read-out: Test Example 1: h-SERT binding inhibition constant (Ki)
T1 construct: expressed in transfected cells; host or cells: CHO cells (h-SERT/CHO), Geneticin-selected
Excerpt: CHO cells containing a human serotonin transporter (h-SERT) expressed therein (h-SERT/CHO) were used in the experiment.
1-2 Receptor Binding Experiment
A smaller value of the h-SERT binding inhibition constant Ki means a higher human serotonin reuptake inhibitory effect.

CYP2D6 [2] = molecular target: T2, CYP2D6 (Homo sapiens, UniProt P10635); assay: CYP2D6 inhibition screening test; type: in vitro ADME; conditions: pooled human liver microsomes, substrate bufuralol, 37° C. 10 min, 1'-hydroxybufuralol by LC-MSMS; read-out: Test Example 3: CYP2D6 Inhibition IC50
T2 construct: Pooled of Human Liver Microsomes was purchased from Xenotech, LLC; tissue Xenotech, LLC; host or cells: pooled human liver microsomes
Procedure: CYP2D6 Inhibition Screening Test
Bufuralol was purchased from Sigma-Aldrich Corp., and Pooled of Human Liver Microsomes was purchased from Xenotech, LLC.
150 μL of Pooled Human Liver Microsomes (20 mg/ml), 12 mL of a 0.5 M potassium phosphate buffer, 1.2 mL of a 165 mM magnesium chloride solution, and 34.65 mL of distilled water were mixed.
Bufuralol was dissolved at a concentration of 2.0 mM in DMSO and then diluted 200-fold with distilled water.
3-3 Experimental Procedures
1. A 10 mM DMSO solution of a test drug was serially diluted 5-fold with DMSO for 4 serial dilutions to prepare 10, 2, 0.4, and 0.08 mM DMSO solutions.
2. Each test drug solution of the step 1. and DMSO were separately diluted 96-fold with a human liver microsome solution, and each dilution was dispensed and 80 μL of each dilution to microplates.
3. 10 μL of a substrate solution and 10 μL of a β-NADPH solution were added to the well of the step 2., followed by incubation at 37° C. for 10 min.
4. The reaction was terminated by the addition of 300 μL of methanol.
5. The reaction mixture was filtered, and LC-MSMS analysis was conducted.
3-4 Quantification and Calculation
The amount of 1′-hydroxybufuralol produced was quantified by LC-MSMS, and this amount was used as a metabolic activity of CYP2D6 for each well. The remaining activity of each sample was determined by comparison with the activity obtained from DMSO as a test drug. An IC50 value of CYP2D6 inhibition was determined from the test drug concentration and remaining activity. The IC50 value was calculated by linear interpolation between two points that span the remaining activity 50%. A larger value of IC50 of CYP2D6 inhibition means weaker CYP2D6 inhibition.

CYP2D6 [3] = molecular target: T2, CYP2D6; assay: Screening test of the rate of CYP2D6 contribution in human liver microsomal metabolism; type: in vitro ADME; design: key to Rate of CYP2D6 Contribution indeterminable due to high stability for human microsomal metabolism: —*^): The rate of CYP2D6 contribution was indeterminable in the present test due to high stability for human microsomal metabolism; conditions: 1 mg/mL human liver microsomes, 1 μM test substance, 37° C.; for Test Example 4: Rate of CYP2D6 Contribution: with/without quinidine 4 μM
Procedure: Screening Test of the Rate of CYP2D6 Contribution in Human Liver Microsomal Metabolism
0.2 mL of a 50 mM potassium phosphate buffer solution (pH 7.4) containing NADPH (final concentration: 3 mM, manufactured by Oriental Yeast Co., Ltd.), 1 mg/mL human liver microsomes (manufactured by XENOTECH, LLC), and a 1 μM test substance was heated on a water bath at 37° C. for metabolic reaction. After the reaction for 15 minutes or 30 minutes, methanol was added in a volume 3 times that of the reaction solution, and the mixture was stirred to terminate the reaction. This reaction solution was centrifuged for protein precipitation. Then, the supernatant was collected and subjected to LC-MS/MS analysis. The results were analyzed as follows:
The test substance was quantified, and time-dependent change in the amount of the substance remaining was logarithmically plotted. A metabolic rate was calculated from the slope.
The ratio of the metabolic rate obtained by the addition of quinidine (final concentration: 4 μM) to the reaction solution to the metabolic rate obtained without the addition was used as the rate of contribution of enzymes other than CYP2D6, and the rate of contribution obtained by subtracting this rate of contribution of other enzymes from the total was used as the rate of CYP2D6 contribution. Specifically, it was calculated according to the equation: Rate of contribution(%)={1−(metabolic rate [with quinidine]/metabolic rate[without quinidine])}×100. A smaller value of the rate of CYP2D6 contribution means smaller CYP2D6 contribution.

[4] = molecular target: T1, human serotonin transporter (h-SERT); assay: Serotonin transporter function inhibition test using [3H]5-HT; type: cell-based; conditions: h-SERT/CHO cells, [3H]5-HT uptake approximately 10 nM, 37° C. 10 minutes; read-out: Test Example 5: h-SERT Function Inhibition Constant (Ki)
Procedure: 1-1 Cells Used and Preparation of Cell Suspension
CHO cells containing a human serotonin transporter (h-SERT) expressed therein (h-SERT/CHO) were used in the experiment. […] The collected cells were suspended in a buffer solution containing 0.1 mM CaCl2 and 1 mM MgCl2 in PBS (hereinafter, referred to as PBSCM) and stored in ice until use.
Specifically, 149 μl of the cell suspension (10×10^4 cells/well) and 1 μl of a solution of a test drug dissolved in dimethyl sulfoxide were preincubated at 37° C. for 10 minutes.

[5] = molecular target: T3, human serotonin 1A receptor (h-5-HT1A) (Homo sapiens, UniProt P08908)
T3 sequence (P08908 1-422): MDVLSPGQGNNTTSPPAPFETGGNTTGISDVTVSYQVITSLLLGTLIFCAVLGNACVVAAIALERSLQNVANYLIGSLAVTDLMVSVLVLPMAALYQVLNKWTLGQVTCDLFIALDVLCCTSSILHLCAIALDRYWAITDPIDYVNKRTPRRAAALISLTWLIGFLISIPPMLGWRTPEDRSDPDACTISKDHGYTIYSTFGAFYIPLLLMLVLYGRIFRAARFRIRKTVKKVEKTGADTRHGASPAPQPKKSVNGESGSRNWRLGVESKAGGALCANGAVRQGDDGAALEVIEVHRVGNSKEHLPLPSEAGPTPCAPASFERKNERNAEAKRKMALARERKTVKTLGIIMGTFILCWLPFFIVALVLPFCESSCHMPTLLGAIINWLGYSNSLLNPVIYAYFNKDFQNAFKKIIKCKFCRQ
Procedure: The cells were cultured in F12 containing 10% FCS, 500 μg/ml Geneticin, and 100 U/ml penicillin-100 μg/ml streptomycin (all manufactured by Sigma-Aldrich Corp.) in a 5% CO2 incubator. […] Specifically, the cells were dissociated/collected using 50 mM Tris-HCl (pH=7.4). The resulting cells were homogenized using a Teflon (registered trademark) homogenizer and then centrifuged (48,000×g, 20 min, 4° C.). The pellet was resuspended in an appropriate amount of 50 mM Tris-HCl (pH=7.4) and stored at −80° C. until use. The amount of the protein in the membrane preparation was quantified using Dye Reagent Concentrate (manufactured by Bio-Rad Laboratories, Inc.) with bovine serum albumin (manufactured by Sigma-Aldrich Corp.) as a standard.
The reaction solution was reacted at room temperature for 30 minutes and then rapidly filtered by suction at a low pressure through glass fiber filter paper. The glass fiber filter paper was washed twice with 250 μl of 50 mM Tris-HCl (pH=7.4) and then added to a counting vial containing 4 ml of ACS-II (manufactured by Amersham Biosciences). Receptor binding radioactivity remaining on the filter paper was measured using a liquid scintillation counter.

T2 sequence (P10635 whole entry): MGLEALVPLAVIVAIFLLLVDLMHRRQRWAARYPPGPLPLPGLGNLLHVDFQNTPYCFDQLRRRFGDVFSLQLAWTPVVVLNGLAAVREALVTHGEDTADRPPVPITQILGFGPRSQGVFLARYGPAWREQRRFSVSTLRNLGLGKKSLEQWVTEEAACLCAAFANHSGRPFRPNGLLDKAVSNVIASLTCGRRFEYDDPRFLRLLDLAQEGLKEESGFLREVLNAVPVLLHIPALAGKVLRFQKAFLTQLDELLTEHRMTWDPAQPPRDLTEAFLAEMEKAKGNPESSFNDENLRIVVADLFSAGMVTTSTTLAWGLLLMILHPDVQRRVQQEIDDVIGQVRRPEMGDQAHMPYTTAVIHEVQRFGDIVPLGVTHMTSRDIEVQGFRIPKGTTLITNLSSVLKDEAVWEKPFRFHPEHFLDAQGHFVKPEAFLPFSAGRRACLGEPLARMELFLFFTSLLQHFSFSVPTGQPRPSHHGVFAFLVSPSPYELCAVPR
T1 sequence (P31645 whole entry): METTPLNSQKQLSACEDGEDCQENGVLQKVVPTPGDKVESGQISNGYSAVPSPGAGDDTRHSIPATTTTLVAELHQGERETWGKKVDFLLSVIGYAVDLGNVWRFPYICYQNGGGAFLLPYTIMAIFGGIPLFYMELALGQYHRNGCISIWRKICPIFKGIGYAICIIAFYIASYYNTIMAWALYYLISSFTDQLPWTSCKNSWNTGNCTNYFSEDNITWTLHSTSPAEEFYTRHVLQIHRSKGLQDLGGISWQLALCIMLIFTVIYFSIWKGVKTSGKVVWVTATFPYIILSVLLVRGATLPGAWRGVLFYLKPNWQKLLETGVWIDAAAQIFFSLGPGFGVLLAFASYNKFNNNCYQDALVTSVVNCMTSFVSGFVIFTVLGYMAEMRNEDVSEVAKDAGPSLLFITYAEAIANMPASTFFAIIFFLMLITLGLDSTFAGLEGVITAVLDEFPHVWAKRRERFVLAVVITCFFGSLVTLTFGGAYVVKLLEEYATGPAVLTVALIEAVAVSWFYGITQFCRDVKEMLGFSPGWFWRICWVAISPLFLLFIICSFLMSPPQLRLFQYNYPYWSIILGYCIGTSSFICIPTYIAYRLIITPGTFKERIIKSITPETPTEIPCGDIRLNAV

## COCCOc1cc(CC2CCN(CCc3ccc4c(c3)C(=O)CC4)CC2)ccc1Br [Example 1]
[1]
  Ki: 0.87 nM
CYP2D6 [2]
  IC50: 27900 nM
CYP2D6 [3]
  Test Example 4: Rate of CYP2D6 Contribution: 36%
[4]
  Ki: 8.9 nM
[5]
  Ki: 4.5 nM

## COCCOc1cc(CC2CCN(CCc3ccc4c(c3)C(=O)CCC4)CC2)ccc1Br [Example 2, 7-(2-{4-[4-Bromo-3-(2-methoxyethoxy)benzyl]piperidin-1-yl}ethyl)-3,4-dihydronaphthalen-1(2H)-one]
[1]
  Ki: 0.7 nM
CYP2D6 [2]
  IC50: 12800 nM
CYP2D6 [3]
  Test Example 4: Rate of CYP2D6 Contribution: 12%
[4]
  Ki: 1.6 nM

## COCCOc1cc(CC2CCN(CCc3ccc4c(c3)C(=O)CCO4)CC2)ccc1Br.Cl [Example 4, 6-(2-{4-[4-Bromo-3-(2-methoxyethoxy)benzyl]piperidin-1-yl}ethyl)-2,3-dihydro-4H-chromen-4-one hydrochloride]
CYP2D6 [2]
  IC50: 22900 nM
CYP2D6 [3]
  Test Example 4: Rate of CYP2D6 Contribution: 0%

## COCCOc1cc(CC2CCN(CCc3ccc4c(c3)C(=O)CCCO4)CC2)ccc1Br [Example 6, 7-(2-{4-[4-Bromo-3-(2-methoxyethoxy)benzyl]piperidin-1-yl}ethyl)-3,4-dihydro-1-benzoxepin-5(2H)-one]
[1]
  Ki: 1.2 nM
CYP2D6 [2]
  IC50: 24700 nM
CYP2D6 [3]
  Test Example 4: Rate of CYP2D6 Contribution: 4.2%
[4]
  Ki: 1.6 nM

## COCCOc1cc(CC2CCN(CCc3ccc4c(c3)C(=O)CCO4)CC2)ccc1Cl [Example 7, 6-(2-{4-[4-Chloro-3-(2-methoxyethoxy)benzyl]piperidin-1-yl}ethyl)-2,3-dihydro-4H-chromen-4-one]
[1]
  Ki: 2.7 nM
CYP2D6 [2]
  IC50: 17500 nM
CYP2D6 [3]
  Test Example 4: Rate of CYP2D6 Contribution: 54%
[4]
  Ki: 16 nM

## COCCOc1cc(CC2CCN(CCc3ccc4c(c3)C(=O)CC4)CC2)ccc1C [Example 8, 6-(2-{4-[3-(2-Methoxyethoxy)-4-methylbenzyl]piperidin-1-yl}ethyl)-2,3-dihydro-1H-inden-1-one]
[1]
  Ki: 2.8 nM
CYP2D6 [2]
  IC50: 31000 nM
CYP2D6 [3]
  Test Example 4: Rate of CYP2D6 Contribution: 9.6%
[5]
  Ki: 3.7 nM

## COCCOc1cc(CC2CCN(CCc3ccc4c(c3)C(=O)CCC4)CC2)ccc1C [Example 9, 7-(2-{4-[3-(2-Methoxyethoxy)-4-methylbenzyl]piperidin-1-yl}ethyl)-3,4-dihydronaphthalen-1(2H)-one]
[1]
  Ki: 3.1 nM
CYP2D6 [2]
  IC50: 33700 nM
CYP2D6 [3]
  Test Example 4: Rate of CYP2D6 Contribution: 7.8%
[5]
  Ki: 13 nM

## COCCOc1cc(CC2CCN(CCc3ccc4c(c3)C(=O)CCO4)CC2)ccc1C [Example 10]
[1]
  Ki: 4.2 nM
CYP2D6 [2]
  IC50: 21500 nM
CYP2D6 [3]
  Test Example 4: Rate of CYP2D6 Contribution: 49%
[4]
  Ki: 44 nM

## O=C1CCc2ccc(CCN3CCC(Cc4ccc(Br)c(OCCO)c4)CC3)cc21 [Example 11, 6-(2-{4-[4-Bromo-3-(2-hydroxyethoxy)benzyl]piperidin-1-yl}ethyl)-2,3-dihydro-1H-inden-1-one]
[1]
  Ki: 6.4 nM
CYP2D6 [2]
  IC50: 24600 nM
CYP2D6 [3]
  Rate of CYP2D6 Contribution indeterminable due to high stability for human microsomal metabolism: —*^)
[5]
  Ki: 3.8 nM

## O=C1CCCc2ccc(CCN3CCC(Cc4ccc(Br)c(OCCO)c4)CC3)cc21 [Example 12, 7-(2-{4-[4-Bromo-3-(2-hydroxyethoxy)benzyl]piperidin-1-yl}ethyl)-3,4-dihydronaphthalen-1(2H)-one]
[1]
  Ki: 9.2 nM
CYP2D6 [2]
  IC50: 27900 nM
CYP2D6 [3]
  Test Example 4: Rate of CYP2D6 Contribution: 17%
[5]
  Ki: 23 nM

## O=C1CCCOc2ccc(CCN3CCC(Cc4ccc(Br)c(OCCO)c4)CC3)cc21 [Example 14, 7-(2-{4-[4-Bromo-3-(2-hydroxyethoxy)benzyl]piperidin-1-yl}ethyl)-3,4-dihydro-1-benzoxepin-5(2H)-one]
[1]
  Ki: 8.5 nM
CYP2D6 [2]
  IC50: 34800 nM
CYP2D6 [3]
  Rate of CYP2D6 Contribution indeterminable due to high stability for human microsomal metabolism: —*^)
[5]
  Ki: 55 nM

## COCCOc1cc(Br)cc(CC2CCN(CCc3ccc4c(c3)C(=O)CC4)CC2)c1 [Example 15, 6-(2-{4-[3-Bromo-5-(2-methoxyethoxy)benzyl]piperidin-1-yl}ethyl)-2,3-dihydro-1H-inden-1-one]
[1]
  Ki: 3.2 nM
CYP2D6 [2]
  IC50: 36100 nM
CYP2D6 [3]
  Test Example 4: Rate of CYP2D6 Contribution: 11%
[5]
  Ki: 35 nM

## COCCOc1cc(Br)cc(CC2CCN(CCc3ccc4c(c3)C(=O)CCC4)CC2)c1 [Example 16, 7-(2-{4-[3-Bromo-5-(2-methoxyethoxy)benzyl]piperidin-1-yl}ethyl)-3,4-dihydronaphthalen-1(2H)-one]
[1]
  Ki: 2.9 nM
CYP2D6 [2]
  IC50: 26300 nM
CYP2D6 [3]
  Test Example 4: Rate of CYP2D6 Contribution: 9.2%
[5]
  Ki: 27 nM

## COCCOc1cc(Br)cc(CC2CCN(CCc3ccc4c(c3)C(=O)CCO4)CC2)c1 [Example 17]
[1]
  Ki: 4 nM
CYP2D6 [2]
  IC50: 24600 nM
CYP2D6 [3]
  Test Example 4: Rate of CYP2D6 Contribution: 14%
[4]
  Ki: 18 nM

## COCCOc1cc(Br)cc(CC2CCN(CCc3ccc4c(c3)C(=O)CCCO4)CC2)c1 [Example 18, 7-(2-{4-[3-Bromo-5-(2-methoxyethoxy)benzyl]piperidin-1-yl}ethyl)-3,4-dihydro-1-benzoxepin-5(2H)-one]
[1]
  Ki: 6.2 nM
CYP2D6 [2]
  IC50: 27500 nM
CYP2D6 [3]
  Test Example 4: Rate of CYP2D6 Contribution: 0%
[5]
  Ki: 295 nM

## COCCOc1cc(Cl)cc(CC2CCN(CCc3ccc4c(c3)C(=O)CC4)CC2)c1 [Example 19, 6-(2-{4-[3-Chloro-5-(2-methoxyethoxy)benzyl]piperidin-1-yl}ethyl)-2,3-dihydro-1H-inden-1-one]
[1]
  Ki: 3 nM
CYP2D6 [2]
  IC50: 20400 nM
CYP2D6 [3]
  Test Example 4: Rate of CYP2D6 Contribution: 16%
[5]
  Ki: 29 nM

## COCCOc1cc(Cl)cc(CC2CCN(CCc3ccc4c(c3)C(=O)CCO4)CC2)c1 [Example 20, 6-(2-{4-[3-Chloro-5-(2-methoxyethoxy)benzyl]piperidin-1-yl}ethyl)-2,3-dihydro-4H-chromen-4-one]
[1]
  Ki: 2.4 nM
CYP2D6 [2]
  IC50: 23400 nM
CYP2D6 [3]
  Test Example 4: Rate of CYP2D6 Contribution: 24%
[5]
  Ki: 57 nM
